# Reference: paper PMC9516332 (Frontiers in Oncology, 2022)
# Like-named read-outs stand apart in the source and are kept apart here.
# What was measured:
# Assay in all cases: Kinase panel profiling at 1 µmol/L (MSA or IMAP), percentage inhibition
# Format in all cases: biochemical
# [1] = target: panel of 255 wild-type kinases (Homo sapiens, UniProt P49759); settings: read-out: %-inhibition at 1 µmol/L, CLK1
# [2] = target: T1, panel of 255 wild-type kinases (Homo sapiens, UniProt Q02156); settings: read-out: %-inhibition at 1 µmol/L, PKCε
# T1 sequence (Q02156 1-737): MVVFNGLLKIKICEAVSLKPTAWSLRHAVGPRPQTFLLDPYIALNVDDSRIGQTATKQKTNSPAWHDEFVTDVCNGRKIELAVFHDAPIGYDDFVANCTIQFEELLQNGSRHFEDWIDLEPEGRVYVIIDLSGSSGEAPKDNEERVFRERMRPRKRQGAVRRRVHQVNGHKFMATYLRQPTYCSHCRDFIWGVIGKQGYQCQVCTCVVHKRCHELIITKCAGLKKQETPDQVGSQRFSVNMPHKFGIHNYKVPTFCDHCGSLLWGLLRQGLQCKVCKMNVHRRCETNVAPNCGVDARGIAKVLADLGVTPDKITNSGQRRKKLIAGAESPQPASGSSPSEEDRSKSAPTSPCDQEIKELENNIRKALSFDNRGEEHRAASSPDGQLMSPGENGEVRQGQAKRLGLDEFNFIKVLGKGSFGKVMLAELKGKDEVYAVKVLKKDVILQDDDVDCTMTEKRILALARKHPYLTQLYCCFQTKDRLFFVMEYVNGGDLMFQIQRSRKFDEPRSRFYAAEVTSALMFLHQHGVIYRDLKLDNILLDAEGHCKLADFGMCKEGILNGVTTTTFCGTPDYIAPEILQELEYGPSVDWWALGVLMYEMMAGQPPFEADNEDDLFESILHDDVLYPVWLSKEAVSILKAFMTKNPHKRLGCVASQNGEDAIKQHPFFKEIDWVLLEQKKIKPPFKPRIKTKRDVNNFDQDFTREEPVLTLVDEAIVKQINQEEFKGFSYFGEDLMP
# [3] = target: T2, panel of 255 wild-type kinases (Homo sapiens, UniProt Q14164); settings: read-out: %-inhibition at 1 µmol/L, IKKε
# T2 sequence (Q14164 1-716): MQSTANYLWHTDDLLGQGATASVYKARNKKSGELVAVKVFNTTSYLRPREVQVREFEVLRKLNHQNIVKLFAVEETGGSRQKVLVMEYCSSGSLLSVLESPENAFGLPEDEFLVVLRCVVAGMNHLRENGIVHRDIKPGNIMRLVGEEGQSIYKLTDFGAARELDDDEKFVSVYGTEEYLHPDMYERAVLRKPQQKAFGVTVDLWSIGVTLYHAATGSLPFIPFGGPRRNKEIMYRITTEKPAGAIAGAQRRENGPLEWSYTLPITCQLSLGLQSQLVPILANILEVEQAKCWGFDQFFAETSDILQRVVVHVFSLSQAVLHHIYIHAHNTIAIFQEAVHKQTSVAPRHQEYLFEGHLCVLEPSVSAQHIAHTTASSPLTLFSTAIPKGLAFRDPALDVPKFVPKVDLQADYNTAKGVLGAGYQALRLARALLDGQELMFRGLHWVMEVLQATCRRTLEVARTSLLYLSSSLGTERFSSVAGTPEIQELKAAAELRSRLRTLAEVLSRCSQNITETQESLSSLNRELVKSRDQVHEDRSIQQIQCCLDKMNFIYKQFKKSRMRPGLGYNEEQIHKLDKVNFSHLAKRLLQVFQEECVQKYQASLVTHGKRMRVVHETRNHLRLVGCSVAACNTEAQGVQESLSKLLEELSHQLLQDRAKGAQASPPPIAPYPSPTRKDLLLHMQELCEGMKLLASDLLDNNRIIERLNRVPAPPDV
# [4] = target: panel of 255 wild-type kinases (Homo sapiens, UniProt Q15375); settings: read-out: %-inhibition at 1 µmol/L, EPHA7
# [5] = target: T3, panel of 255 wild-type kinases (Homo sapiens, UniProt Q8NE63); settings: read-out: %-inhibition at 1 µmol/L, HIPK4
# T3 sequence (Q8NE63 1-616): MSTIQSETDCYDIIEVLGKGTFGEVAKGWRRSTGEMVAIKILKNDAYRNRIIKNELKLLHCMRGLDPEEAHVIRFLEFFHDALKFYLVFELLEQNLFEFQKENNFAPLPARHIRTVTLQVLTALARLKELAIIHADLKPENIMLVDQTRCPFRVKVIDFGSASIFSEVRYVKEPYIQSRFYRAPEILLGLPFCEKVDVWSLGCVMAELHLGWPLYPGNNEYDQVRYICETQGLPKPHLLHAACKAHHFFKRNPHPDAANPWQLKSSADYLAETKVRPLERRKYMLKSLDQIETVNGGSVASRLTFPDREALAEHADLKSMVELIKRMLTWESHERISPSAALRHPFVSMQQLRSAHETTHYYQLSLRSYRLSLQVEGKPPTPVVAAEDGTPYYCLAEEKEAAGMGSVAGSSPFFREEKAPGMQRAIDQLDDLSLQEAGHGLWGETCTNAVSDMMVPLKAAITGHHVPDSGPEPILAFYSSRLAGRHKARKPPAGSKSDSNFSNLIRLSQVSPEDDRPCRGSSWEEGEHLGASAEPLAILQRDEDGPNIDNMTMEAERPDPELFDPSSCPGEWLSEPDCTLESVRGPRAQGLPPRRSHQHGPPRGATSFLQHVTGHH
# [6] = target: panel of 255 wild-type kinases (Homo sapiens, UniProt Q96RG2); settings: read-out: %-inhibition, PASK
# [7] = kinase CLK1, 1 µmol/L single concentration
# [8] = kinase PKCε, 1 µmol/L single concentration
# [9] = kinase IKKε, 1 µmol/L single concentration
# [10] = kinase EPHA7, 1 µmol/L single concentration
# [11] = kinase HIPK4, 1 µmol/L single concentration
# [12] = PASK, 1 µmol/L single concentration
Compound,"inhibition at 1 µM [1, 7] [%]","inhibition at 1 µM [2, 8] [%]","inhibition at 1 µM [3, 9] [%]","inhibition at 1 µM [4, 10] [%]","inhibition at 1 µM [5, 11] [%]","inhibition at 1 µM [6, 12] [%]",inhibition at 1 µM [1] [%],inhibition at 1 µM [2] [%],inhibition at 1 µM [3] [%],inhibition at 1 µM [4] [%],inhibition at 1 µM [5] [%],inhibition at 1 µM [6] [%]
Cn1cnc2c(F)c(Nc3ccc(Br)cc3Cl)c(C(=O)NOCCO)cc21 [selumetinib],5,0.617,-5.67,-1.78,10,-2,–,–,–,–,–,–
COc1ccc(CN2C3CC2CN(c2ccc(-c4cc(OCC(C)(C)O)cn5ncc(C#N)c45)cn2)C3)cn1 [selpercatinib],19,7,20,96,21,-2.29,–,–,–,–,–,–
O=C(Nc1cnn2ccc(N3CCC[C@@H]3c3cc(F)ccc3F)nc12)N1CC[C@H](O)C1 [larotrectinib],5.31,8,7,-0.152,6,0.745,–,–,–,–,–,–
CCN1C(=O)N(c2c(F)c(OC)cc(OC)c2F)Cc2cnc3[nH]c(CN4CCOCC4)cc3c21 [pemigatinib],5,5,8.49,-0.619,28,-5,–,–,–,–,–,–
CNC(=O)c1ccc(-c2cnc3ncc(Cc4ccc5ncccc5c4)n3n2)cc1F [capmatinib],–,–,–,–,–,–,8,-19,-5.46,-0.309,3.67,-5
FC(F)(F)c1ccc(CNc2ccc(Cc3c[nH]c4ncc(Cl)cc34)cn2)cn1 [pexidartinib],13,1.26,-1.81,6.38,52,6,–,–,–,–,–,–
C[C@H](Nc1ncnc2nc[nH]c12)c1cc2cccc(Cl)c2c(=O)n1-c1ccccc1 [duvelisib],-0.419,13,-0.56,-2.14,5,-0.608,–,–,–,–,–,–
CO[C@]1(C(=O)N[C@@H](C)c2ccc(-n3cc(F)cn3)nc2)CC[C@H](c2nc(C)cc(Nc3cc(C)[nH]n3)n2)CC1 [pralsetinib],32,0.425,-5,68,44,-2.38,–,–,–,–,–,–
Cc1cc(Nc2ncnc3ccc(NC4=NC(C)(C)CO4)cc23)ccc1Oc1ccn2ncnc2c1 [tucatinib],7,-0.0549,-2.62,1.07,21,0.181,–,–,–,–,–,–
Cn1cnc2c(F)c(Nc3ccc(Br)cc3F)c(C(=O)NOCCO)cc21 [binimetinib],-1.7,11,-3,0.598,-3.77,-2.45,–,–,–,–,–,–
Cc1nc(NC(=O)N2CCC[C@H]2C(N)=O)sc1-c1ccnc(C(C)(C)C(F)(F)F)c1 [alpelisib],59,15,-4.31,-1.3,64,-2,–,–,–,–,–,–
C=CC(=O)N1CCC([C@@H]2CCNc3c(C(N)=O)c(-c4ccc(Oc5ccccc5)cc4)nn32)CC1 [zanubrutinib],4.66,8,6,0.758,7,-2.55,–,–,–,–,–,–
C[C@H]1Oc2cc(cnc2N)-c2c(nn(C)c2C#N)CN(C)C(=O)c2ccc(F)cc21 [lorlatinib],-2.47,10,-3.78,56,2.62,0.792,–,–,–,–,–,–
CCN1CCN(c2ccc(Nc3cc(N(C)C(=O)Nc4c(Cl)c(OC)cc(OC)c4Cl)ncn3)cc2)CC1 [infigratinib],10,4.68,-6,-4,6,-1.46,–,–,–,–,–,–
COC(=O)N[C@@H](C)CNc1nccc(-c2cn(C(C)C)nc2-c2cc(Cl)cc(NS(C)(=O)=O)c2F)n1 [encorafenib],3,-7,-3.36,5,59,-3,–,–,–,–,–,–
CCc1nc(C(N)=O)c(Nc2ccc(N3CCC(N4CCN(C)CC4)CC3)c(OC)c2)nc1NC1CCOCC1 [gilteritinib],96,27,10,79,99,2.54,–,–,–,–,–,–
CN1CCN(c2ccc(C(=O)Nc3n[nH]c4ccc(Cc5cc(F)cc(F)c5)cc34)c(NC3CCOCC3)c2)CC1 [entrectinib],60,27,7,44,14,1.19,–,–,–,–,–,–
COc1cc2ncnc(Nc3ccc(F)c(Cl)c3)c2cc1NC(=O)/C=C/CN1CCCCC1 [dacomitinib],19,8,-2.11,38,85,5.35,–,–,–,–,–,–
Cn1cc(-c2cc3c(N4CCN(c5ncc([C@@](C)(N)c6ccc(F)cc6)cn5)CC4)ncnn3c2)cn1 [avapritinib],–,-2.54,-0.262,13,46,13,–,–,–,–,–,–
CCn1c(=O)c(-c2cc(NC(=O)Nc3ccccc3)c(F)cc2Br)cc2cnc(NC)cc21 [ripretinib],1,6,-5,54,98,-1,–,–,–,–,–,–
